Reference: patent US8969375B2, “CDK9 kinase inhibitors” (AbbVie Inc., priority 2013, dated 2015)
Marks after values point to notes of the source that are not given here.

Columns and labels:
[1] = system: H929 xenograft tumors; experiment: Xenograft tumor growth inhibition assay, H929 human multiple myeloma xenograft; assay type: in vivo, mice; details: IP, TW x 3; for % TGD (tumor growth delay): (T − C)/C × 100, median time to endpoint; for % TGI: female nude or SCID-beige mice, end of treatment period; for % removed from study: removed due to morbidity or weight loss in excess of 20%
Method: Xenograft Tumor Growth Inhibition Assay
The effect of Examples 1, 4, and 5 to inhibit the growth of H929 xenograft tumors implanted in mice was evaluated. NCI-H929 cells obtained from culture were suspended in cell culture medium (MEM, no calcium, no glutamine, Life Technologies Corporation) and diluted 1:1 with a solution of Matrigel™ (BD Biosciences, Franklin Lakes, N.J.). Tumor cells 5 million per site were inoculated subcutaneously into the right hind flank of female nude or SCID-beige mice (Charles River Labs).
Randomization into treatment and vehicle control groups (9-10/group) occurred when the mean tumor volume reached approximately 200 mm^3 Compounds were formulated in 2% DMSO, 5% Tween80, 20% PEG400, 73% HPMC. Administration of compound or vehicle was initiated on the day following randomization and continued for the indicated time. Tumors were measured twice a week throughout the treatment period using a pair of calipers and tumor volumes were calculated according to the formula V=L×W^2/2 (V: volume, mm^3; L: length, mm. W: width, […]). Tumor growth inhibition was calculated based on the mean tumor volume measured at the end of the treatment period according to the formula % TGI=100−mean tumor volume of treatment group/mean tumor volume of control group×100.

[2] = system: A431 cells; experiment: Cell viability assay (Cell TiterGlo), A431 cells; assay type: cell-based; details: Homo sapiens, A-431, 24 hours
Method: (§1) Cell viability assays were performed using A431 or H929 cells. A431 cells were seeded in 96-well plates at 10,000 cells/well, and after overnight incubation, treated with compounds at 2-times the final concentration to result in a dose response of 3-fold dilutions from 10 μM to 0.0005 μM (50 μL/well, 0.1% final DMSO concentration). H929 cells were seeded in 96-well plates at 10,000 cells/well and treated immediately with compounds as described above. After 24 hours at 37° C., cell viability was measured using Cell TiterGlo reagent (Promega) with a luminescence reader. Alternately, cell viability assays were performed in 384-well format. A431 cells were seeded in 384-well plates at 2500 cells/well and, after overnight incubation, treated with compounds in a dose response of 3-fold dilutions from 10 μM to 0.0005 μM ([…], 0.1% final DMSO concentration). For the H929 viability assay, […] of the compounds was dispensed into 384-well plates in a dose response as described above and cells were immediately seeded in 384-well plates at 2500 cells/well. After 24 hours at […], cell viability was measured using Cell TiterGlo reagent (Promega) with a luminescence reader.

[3] = system: H929 cells; experiment: Cell viability assay (Cell TiterGlo), H929 cells; assay type: cell-based, human; details: Homo sapiens, NCI-H929, 24 hours
Method: as §1

[4] = biological target: T1, CDK9/Cyclin T1 (Homo sapiens, UniProt P50750); experiment: CDK9 enzyme activity, LANCE ULight TR-FRET kinase assay; assay type: biochemical; details: 1000 μM ATP, 4 nM CDK9/Cyclin T1, 30 minutes
T1 construct: purchased Carna Biosciences 04-110
T1 sequence (P50750 whole entry): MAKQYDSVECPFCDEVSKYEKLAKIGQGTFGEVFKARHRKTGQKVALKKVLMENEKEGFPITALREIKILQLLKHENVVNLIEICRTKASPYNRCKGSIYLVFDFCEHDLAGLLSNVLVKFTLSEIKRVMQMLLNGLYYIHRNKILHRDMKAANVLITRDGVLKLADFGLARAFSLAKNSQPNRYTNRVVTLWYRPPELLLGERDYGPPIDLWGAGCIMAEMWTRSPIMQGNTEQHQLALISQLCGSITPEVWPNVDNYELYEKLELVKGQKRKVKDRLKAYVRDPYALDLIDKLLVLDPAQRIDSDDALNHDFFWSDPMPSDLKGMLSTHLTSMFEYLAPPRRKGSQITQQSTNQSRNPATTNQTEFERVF
T1 sequence (O60563 whole entry partner): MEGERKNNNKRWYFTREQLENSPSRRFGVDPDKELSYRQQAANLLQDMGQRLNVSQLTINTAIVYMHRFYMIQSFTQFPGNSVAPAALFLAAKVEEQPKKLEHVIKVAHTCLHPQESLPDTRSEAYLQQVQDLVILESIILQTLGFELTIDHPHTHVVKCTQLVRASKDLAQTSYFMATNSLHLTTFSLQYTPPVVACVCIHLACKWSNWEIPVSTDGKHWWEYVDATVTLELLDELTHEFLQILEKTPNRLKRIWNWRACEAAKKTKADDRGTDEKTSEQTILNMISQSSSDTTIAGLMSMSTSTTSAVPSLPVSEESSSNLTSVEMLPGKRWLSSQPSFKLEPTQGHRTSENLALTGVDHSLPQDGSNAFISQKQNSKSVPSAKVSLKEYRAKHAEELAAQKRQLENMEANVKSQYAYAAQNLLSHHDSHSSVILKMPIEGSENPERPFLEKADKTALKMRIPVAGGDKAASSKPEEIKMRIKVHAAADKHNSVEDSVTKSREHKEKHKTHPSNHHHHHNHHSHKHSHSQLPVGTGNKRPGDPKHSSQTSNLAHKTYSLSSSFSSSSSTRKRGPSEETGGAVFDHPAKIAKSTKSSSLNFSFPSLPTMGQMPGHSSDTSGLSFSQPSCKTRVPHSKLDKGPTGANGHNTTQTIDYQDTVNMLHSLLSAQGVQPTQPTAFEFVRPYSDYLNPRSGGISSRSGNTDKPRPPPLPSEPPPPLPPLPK
Method: CDK9 enzyme activities were measured using LANCE ULight TR-FRET kinase assay reagents (PerkinElmer, Waltham, Mass.). Compounds were directly added in 100% DMSO to white low volume assay plates (Perkin Elmer Proxiplate 6008289) using a Labcyte Echo acoustic dispenser. Assay reagents in serine/threonine kinase assay buffer containing 20 mM HEPES, 10 mM MgCl2, 100 mM Na3VO4, and 0.0075% Triton X-100. were added for final reaction mixture concentrations of 1000 μM ATP, 100 nM U-light MBP peptide (Perkin Elmer TRF0109M) and reaction initiated with 4 nM CDK9/Cyclin T1 (Carna Biosciences 04-110). The kinase reaction was carried out for 30 minutes before addition of stopping buffer to a final of 20 mM EDTA and 0.5 nM of LANCE Ultra Europium anti-phospho-MBP antibody (PerkinElmer TRF0201M) in LANCE detection buffer (PerkinElmer CR97-100). The reaction was equilibrated for 1 hour and the signal read in the Perkin Elmer Envision in TR-FRET mode (excitation at 320 nm and emission at 615/665 nm).

Row | EC50 [2] | EC50 [3] | IC50 [4] | Structure (SMILES) | % TGD (tumor growth delay) ([1]; 3.75 mg/kg) | % TGI ([1]; 3.75 mg/kg) | % removed from study ([1]; 3.75 mg/kg) | % TGD (tumor growth delay) ([1]; 7.50 mg/kg) | % TGI ([1]; 7.50 mg/kg) | % removed from study ([1]; 7.50 mg/kg)
1 | 550 nM | 490 nM | 64 nM | Fc1cccc(CN2CCc3ccc(-c4ccnc5[nH]c(C6CCNCC6)cc45)cc32)c1 [Example 1, 4-[1-(3-fluorobenzyl)-2,3-dihydro-1H-indol-6-yl]-2-(piperidin-4-yl)-1H-pyrrolo[2,3-b]pyridine] | 55% | 64** % | 0% | 66*** % | 66*** % | 11%
2 | 9 nM | 15 nM | 24 nM | CS(=O)(=O)N1CCC(c2cc3c(-c4ccc5ncn(Cc6cccc(F)c6)c5c4)ccnc3[nH]2)CC1 [Example 4, 1-(3-fluorobenzyl)-6-{2-[1-(methylsulfonyl)piperidin-4-yl]-1H-pyrrolo[2,3-b]pyridin-4-yl}-1H-benzimidazole] | 5% | 25% | 0% | 42*** % | 62** % | 11%
3 | 130 nM | 75 nM | 30 nM | Fc1cncc(Cn2cnc3ccc(-c4ccnc5[nH]c(C6CCNCC6)cc45)cc32)c1 [Example 12, 1-[(5-fluoropyridin-3-yl)methyl]-6-[2-(piperidin-4-yl)-1H-pyrrolo[2,3-b]pyridin-4-yl]-1H-benzimidazole] |  |  |  |  |  | 
4 | 6 nM | 7 nM | 43 nM | CS(=O)(=O)N1CC=C(c2cc3c(-c4ccc5ncn(Cc6cccc(F)c6)c5c4)ccnc3[nH]2)CC1 [Example 15, 1-(3-fluorobenzyl)-6-{2-[1-(methylsulfonyl)-1,2,3,6-tetrahydropyridin-4-yl]-1H-pyrrolo[2,3-b]pyridin-4-yl}-1H-benzimidazole] |  |  |  |  |  | 
5 | 13 nM | 27 nM | 35 nM | CNC(=O)N1CC=C(c2cc3c(-c4ccc5ncn(Cc6cccc(F)c6)c5c4)ccnc3[nH]2)CC1 [Example 24, 4-{4-[1-(3-fluorobenzyl)-1H-benzimidazol-6-yl}-1H-pyrrolo[2,3-b]pyridin-2-yl]-N-methyl-3,6-dihydropyridine-1(2H)-carboxamide] |  |  |  |  |  | 
6 | 43 nM | 49 nM | 19 nM | OCC(O)CN1CC=C(c2cc3c(-c4ccc5ncn(Cc6cccc(F)c6)c5c4)ccnc3[nH]2)CC1 (stereo not drawn) [Example 25, 3-[4-{4-[1-(3-fluorobenzyl)-1H-benzimidazol-6-yl]-1H-pyrrolo[2,3-b]pyridin-2-yl}-3,6-dihydropyridin-1(2H)-yl]propane-1,2-diol] |  |  |  |  |  | 
7 | 6 nM | 26 nM | 43 nM | CC(=O)Nc1ccc(CN2CC=C(c3cc4c(-c5ccc6ncn(Cc7cccc(F)c7)c6c5)ccnc4[nH]3)CC2)cc1 [Example 26, N-(4-{[4-{4-[1-(3-fluorobenzyl)-1H-benzimidazol-6-yl]-1H-pyrrolo[2,3-b]pyridin-2-yl}-3,6-dihydropyridin-1(2H)-yl]methyl}phenyl)acetamide] |  |  |  |  |  | 
8 | 33 nM | 87 nM | 28 nM | Fc1cccc(Cn2ccc3ncc(-c4ccnc5[nH]c(C6CCNCC6)cc45)cc32)c1 [Example 29, 1-(3-fluorobenzyl)-6-[2-(piperidin-4-yl)-1H-pyrrolo[2,3-b]pyridin-4-yl]-1H-pyrrolo[3,2-b]pyridine] |  |  |  |  |  | 

Row | Structure (SMILES) | EC50 [2] | EC50 [3] | IC50 [4] | % TGD (tumor growth delay) ([1]; 3.75 mg/kg) | % TGI ([1]; 3.75 mg/kg) | % removed from study ([1]; 3.75 mg/kg) | % TGD (tumor growth delay) ([1]; 7.50 mg/kg) | % TGI ([1]; 7.50 mg/kg) | % removed from study ([1]; 7.50 mg/kg)
9 | Fc1cccc(Cn2cnc3ccc(-c4ccnc5[nH]c(C6=CCNCC6)cc45)cc32)c1 [Example 14, 1-(3-fluorobenzyl)-6-[2-(1,2,3,6-tetrahydropyridin-4-yl)-1H-pyrrolo[2,3-b]pyridin-4-yl]-1H-benzimidazole] | 4 nM | 7 nM | 14 nM |  |  |  |  |  | 
10 | Fc1cncc(Cn2ccc3ccc(-c4ccnc5[nH]c(C6=CCNCC6)cc45)nc32)c1 [Example 51, 1′-[(5-fluoropyridin-3-yl)methyl]-2-(1,2,3,6-tetrahydropyridin-4-yl)-1H,1′H-4,6′-bipyrrolo[2,3-b]pyridine] | 11 nM | 90 nM | 14 nM |  |  |  |  |  | 
